According to ChEMBL document CHEMBL4052676, “Anti-diabetic xanthones from the bark of Garcinia xanthochymus” (Bioorg Med Chem Lett, 2017):

Legend:
[1] = Inhibition of Saccharomyces cerevisiae alpha-glucosidase pre-incubated for 10 mins before p-nitrophenyl […]-D-glucopyranoside substrate addition and measured every 30 secs for 35 mins post substrate addition
[2] = molecular target: T1, Tyrosine-protein phosphatase non-receptor type 1 (Homo sapiens, UniProt P18031); assay: Inhibition of human recombinant PTP1B pre-incubated for 10 mins before pnitrophenyl phosphate substrate addition and measured every 30 secs for 10 mins
T1 sequence (P18031 whole entry): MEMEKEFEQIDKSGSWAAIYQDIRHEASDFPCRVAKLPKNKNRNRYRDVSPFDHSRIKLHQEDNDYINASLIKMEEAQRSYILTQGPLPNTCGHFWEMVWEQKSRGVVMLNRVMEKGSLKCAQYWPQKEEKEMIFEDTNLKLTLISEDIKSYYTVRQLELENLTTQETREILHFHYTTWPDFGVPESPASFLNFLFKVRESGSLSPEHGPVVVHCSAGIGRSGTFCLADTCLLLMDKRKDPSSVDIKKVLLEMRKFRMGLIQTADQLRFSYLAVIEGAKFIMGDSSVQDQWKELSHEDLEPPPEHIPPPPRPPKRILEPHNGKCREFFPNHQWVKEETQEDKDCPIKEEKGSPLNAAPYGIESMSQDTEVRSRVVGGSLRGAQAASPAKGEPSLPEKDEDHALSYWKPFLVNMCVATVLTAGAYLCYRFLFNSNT

SMILES | IC50 ([1]; read-out: IC50) | IC50 ([2]; read-out: IC50) | IC50 [2] | IC50 [1]
COc1c(O)cc2oc3cc4occc4c(O)c3c(=O)c2c1C/C=C(\C)CCC=C(C)C | 94.2 µM | 55.1 µM |  | 
O=c1c2cccc(O)c2oc2c(O)ccc(O)c12 | 358 µM | 148 µM |  | 
C[C@H]1O[C@H](O[C@H]2[C@H](O)[C@@H](O)[C@@H](O[C@H]3[C@H](O)[C@@H](O)C(O)O[C@@H]3CO)O[C@@H]2CO)[C@H](O)[C@@H](O)[C@@H]1N[C@H]1C=C(CO)[C@@H](O)[C@H](O)[C@H]1O (stereo not given in full) [ACARBOSE] | 900 µM |  |  | 
C=CC(C)(C)c1cc(O)c(O)c2c(=O)c3cccc(O)c3oc12 | 29.8 µM | 73.2 µM |  | 
O=c1c2cc(O)ccc2oc2ccc(O)c(O)c12 | 31.4 µM | 120 µM |  | 
C=CC(C)(C)c1cc(O)c(O)c2c(=O)c3cc4c(c(O)c3oc12)OC(C)(C)C=C4 |  | 49.4 µM |  | Not Active
O=c1c2cc(O)ccc2oc2cccc(O)c12 |  | 150 µM |  | Not Active

The next lines start with the values.

IC50 ([1]; read-out: IC50) | IC50 ([2]; read-out: IC50) | IC50 [2] | IC50 [1] | SMILES
4.1 µM | 53 µM |  |  | C=CC(C)(C)c1cc(O)c2oc3c(O)c(O)ccc3c(=O)c2c1O
27.5 µM | 85.5 µM |  |  | C=CC(C)(C)c1cc(O)c(O)c2c(=O)c3ccc(O)c(O)c3oc12
36.7 µM | 8 µM |  |  | C=CC(C)(C)c1cc(O)c2oc3c(O)c4c(cc3c(=O)c2c1O)C=CC(C)(C)O4
134 µM | 45.2 µM |  |  | C=CC(C)(C)c1cc(O)c(O)c2c(=O)c3cc4ccoc4c(O)c3oc12
142 µM | 26.8 µM |  |  | C=CC(C)(C)c1cc(O)c2oc3c(O)c4occc4cc3c(=O)c2c1O
85.5 µM |  | Not Active |  | C=CC(C)(C)c1cc(O)c2oc3c(O)cccc3c(=O)c2c1O
